Reference: paper PMC4256282, “Profound Activity of the Anti-cancer Drug Bortezomib against Echinococcus multilocularis Metacestodes Identifies the Proteasome as a Novel Drug Target for Cestodes” (PLoS Neglected Tropical Diseases, 2014)

Columns and labels:
bovine chymotrypsin = bovine chymotrypsin (Bos taurus, UniProt P00766); assay: in-gel fluorescent zymography with SLLVT-AMC, chymotrypsin […] ng per lane, single BTZ concentration; format: biochemical
[1] = target: T1, proteasome subunit beta 5 of E. multilocularis (EmPSMB5, EmuJ_000590200_1) (Echinococcus multilocularis, UniProt A0A068Y5K9); assay: biochemical
T1 sequence (A0A068Y5K9 66-269): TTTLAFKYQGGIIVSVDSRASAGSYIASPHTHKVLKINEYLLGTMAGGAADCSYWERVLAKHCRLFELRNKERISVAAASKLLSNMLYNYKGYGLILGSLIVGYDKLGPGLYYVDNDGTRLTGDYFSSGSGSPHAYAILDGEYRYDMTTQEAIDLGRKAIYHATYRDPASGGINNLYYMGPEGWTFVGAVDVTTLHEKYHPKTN

CC(C)C[C@H](NC(=O)[C@H](Cc1ccccc1)NC(=O)c1cnccn1)B(O)O [BTZ, bortezomib]
in-gel fluorescent zymography with SLLVT-AMC, chymotrypsin 5 ng per lane, single (bovine chymotrypsin): BTZ can inhibit also other targets, such as for example chymotrypsin (as shown in the control of Figure 7B)
IC50 [1]: 760 nM
